Ten compounds from PubChem BioAssay (NCI) can be followed below.

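Following 48 hours of exposure in 96-well plates, responses at five concentrations were used to interpolate endpoints linearly. GI50 = concentration required for 50% inhibition of growth. At the TGI there is no net growth.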

Test systems include DU-145 prostate; HOP-92 NSCLC; MCF7 breast; NCI-H460 lung; NCI-H522 lung; OVCAR-8 ovarian; SK-MEL-2 melanoma; SN12C renal; SR leukemia; UACC-257 melanoma.
Common to all, as to assay: growth of human tumour cells (NCI), 48 h

For `COS(C)(=O)=O`, the TGI with DU-145 prostate, in the experiment on HOP-92 NSCLC, with MCF7 breast, in the experiment on NCI-H460 lung, in the experiment with NCI-H522 lung and in the experiment on OVCAR-8 ovarian was greater than 2 µM each time. Further, the TGI in the experiment on SK-MEL-2 melanoma, in the experiment on SN12C renal, with SR leukemia and in the experiment on UACC-257 melanoma was greater than 2 µM in each case.
As for `Oc1ccc2ccccc2c1C=NCc1c(O)ccc2ccccc12`, the TGI in the experiment with DU-145 prostate was greater than 100 µM; in the experiment on HOP-92 NSCLC, greater than 100 µM; with MCF7 breast, greater than 100 µM; in the experiment on NCI-H460 lung, greater than 100 µM; in the experiment on NCI-H522 lung, 50.5 µM; in the experiment on OVCAR-8 ovarian, greater than 100 µM. In addition, the TGI with SK-MEL-2 melanoma, in the experiment on SN12C renal, in the experiment on SR leukemia and in the experiment with UACC-257 melanoma was greater than 100 µM throughout.
For the compound `COc1ccc2c(c1)CCc1cc(OC)ccc1/[N+]([O-])=[N+]\2[O-]`, the TGI was found to be 38.1 µM in the experiment with DU-145 prostate; 27.2 µM with HOP-92 NSCLC; 26.7 µM with MCF7 breast; 39.9 µM with NCI-H460 lung; 13.7 µM in the experiment on NCI-H522 lung; 33 µM with OVCAR-8 ovarian. Moreover, the TGI is 43.8 µM in the experiment on SK-MEL-2 melanoma, 31.6 µM in the experiment with SN12C renal, greater than 42.7 µM in the experiment with SR leukemia and 35 µM in the experiment with UACC-257 melanoma.
Consider `CC(=O)Nc1cc2cc(NS(=O)(=O)c3ccc(Cl)c(Cl)c3)ccc2oc1=O`, for which the TGI with DU-145 prostate was greater than 100 µM; in the experiment on HOP-92 NSCLC it was 60.5 µM; in the experiment on MCF7 breast, 47.7 µM; with NCI-H460 lung, greater than 100 µM; in the experiment with NCI-H522 lung, 63.6 µM; with OVCAR-8 ovarian, 31.6 µM. Besides, the TGI in the experiment with SK-MEL-2 melanoma is greater than 100 µM; in the experiment on SN12C renal it was 64.8 µM; in the experiment with SR leukemia, greater than 100 µM; in the experiment on UACC-257 melanoma, greater than 100 µM.
For the compound `c1ccc(Oc2ccc(Nc3ncc(-c4ccccc4)o3)cc2)cc1`, the GI50 was greater than 25 µM in the experiment on DU-145 prostate; 23.9 µM in the experiment on HOP-92 NSCLC; greater than 25 µM in the experiment with MCF7 breast; greater than 25 µM with NCI-H460 lung; greater than 25 µM in the experiment on NCI-H522 lung; greater than 25 µM with OVCAR-8 ovarian. Further, the GI50 with SK-MEL-2 melanoma, in the experiment with SN12C renal, with SR leukemia and in the experiment on UACC-257 melanoma was greater than 25 µM throughout. Also, the TGI in the experiment with DU-145 prostate, in the experiment with HOP-92 NSCLC, in the experiment with MCF7 breast, with NCI-H460 lung, in the experiment on NCI-H522 lung and in the experiment on OVCAR-8 ovarian was greater than 25 µM in each case. The TGI in the experiment with SK-MEL-2 melanoma, in the experiment with SN12C renal, in the experiment with SR leukemia and with UACC-257 melanoma was greater than 25 µM each time.
For `CC(=O)Nc1ccc(S(=O)(=O)N=S(C)C)cc1`, the TGI with DU-145 prostate, in the experiment on HOP-92 NSCLC, in the experiment with MCF7 breast, in the experiment with NCI-H460 lung, in the experiment on NCI-H522 lung and with OVCAR-8 ovarian was greater than 100 µM each time. The TGI in the experiment on SK-MEL-2 melanoma, with SN12C renal, in the experiment on SR leukemia and in the experiment with UACC-257 melanoma was greater than 100 µM throughout.
With `CC1=C(C(=O)Nc2ccc(F)c(Cl)c2)C(c2cccc(Oc3ccccc3)c2)NC(=S)N1` (stereo not given), the GI50 with DU-145 prostate was 21.2 µM; in the experiment with HOP-92 NSCLC, 21 µM; with MCF7 breast, 12.8 µM; in the experiment on NCI-H460 lung, 13.5 µM; in the experiment on NCI-H522 lung it was 8.57 µM; in the experiment on OVCAR-8 ovarian it was 11.3 µM. The GI50 is 9.72 µM with SK-MEL-2 melanoma, 9.27 µM with SN12C renal, 14.3 µM in the experiment on SR leukemia and 13.5 µM with UACC-257 melanoma. The TGI in the experiment on DU-145 prostate was greater than 50 µM; in the experiment with HOP-92 NSCLC, greater than 50 µM; in the experiment on MCF7 breast it was greater than 50 µM; in the experiment with NCI-H460 lung, 33.6 µM; with NCI-H522 lung, 24.3 µM; in the experiment with OVCAR-8 ovarian, 26.9 µM. Also, the TGI with SK-MEL-2 melanoma was 27.2 µM; with SN12C renal, 17.6 µM; in the experiment with SR leukemia, greater than 50 µM; in the experiment with UACC-257 melanoma, 33.5 µM.
Take `CS(=O)(=O)c1cccc(Nc2ncc3cc(-c4ccccc4Cl)ccc3n2)c1`: the GI50 with DU-145 prostate was 1.42 µM; in the experiment on HOP-92 NSCLC, 1.3 µM; in the experiment on MCF7 breast it was 1.37 µM; in the experiment with NCI-H460 lung it was 1.22 µM; in the experiment with NCI-H522 lung, 0.773 µM; in the experiment with OVCAR-8 ovarian, 1.44 µM. For the same compound, the GI50 was 0.92 µM with SK-MEL-2 melanoma, 1.12 µM with SN12C renal, 0.8 µM in the experiment with SR leukemia and 3.24 µM in the experiment on UACC-257 melanoma. For the same compound, the TGI in the experiment with DU-145 prostate was greater than 33.3 µM; in the experiment with HOP-92 NSCLC, 7.56 µM; with MCF7 breast, greater than 33.3 µM; in the experiment with NCI-H460 lung, 25.8 µM; in the experiment with NCI-H522 lung, 2.78 µM; with OVCAR-8 ovarian, 32 µM. Further, the TGI is 2.61 µM in the experiment on SK-MEL-2 melanoma, greater than 33.3 µM with SN12C renal, greater than 33.3 µM with SR leukemia and 19.3 µM with UACC-257 melanoma.
Take `CC(=O)/C(Br)=C/c1ccc(Br)o1`: the GI50 with DU-145 prostate is 6.19 µM; with HOP-92 NSCLC, 8.63 µM; in the experiment with MCF7 breast, 3.67 µM; in the experiment with NCI-H460 lung it was 14.2 µM; in the experiment on NCI-H522 lung, 2.78 µM; with OVCAR-8 ovarian, 3.33 µM. Besides, the GI50 in the experiment on SK-MEL-2 melanoma was 8.59 µM; with SN12C renal, 8.11 µM; in the experiment on SR leukemia it was 1.72 µM; with UACC-257 melanoma, 6.05 µM. Moreover, the TGI is 18.3 µM in the experiment with DU-145 prostate; 23.9 µM in the experiment with HOP-92 NSCLC; 14.4 µM in the experiment on MCF7 breast; 30.9 µM in the experiment with NCI-H460 lung; 8.14 µM in the experiment on NCI-H522 lung; greater than 35.8 µM in the experiment with OVCAR-8 ovarian. Besides, the TGI in the experiment on SK-MEL-2 melanoma stood at 23.9 µM; with SN12C renal, 26.7 µM; with SR leukemia, 5.42 µM; with UACC-257 melanoma, 19.2 µM.
With `Cc1ccc(-c2nc(-c3nccc4ccccc34)oc2-c2ccccc2)cc1`, the TGI with DU-145 prostate, in the experiment with HOP-92 NSCLC, in the experiment with MCF7 breast, with NCI-H460 lung, with NCI-H522 lung and with OVCAR-8 ovarian was greater than 100 µM each time. Further, the TGI in the experiment on SK-MEL-2 melanoma was greater than 100 µM; with SN12C renal, 62.7 µM; in the experiment with SR leukemia it was greater than 100 µM; with UACC-257 melanoma, greater than 100 µM.
